Results from patent publication US9309191B2 (priority 2013, dated 2016).

System: Magnaporthe grisea
Assay type: in vivo
Conditions: rice (Nipponbare); for lesion area of treated plants relative to the lesion area in the non-treated plant: 200 ppm foliar spray, contact with affected seedlings for 6 days; for Lesion Area (%): Concentration 200 ppm foliar spray, table

| Compound | lesion area of treated plants relative to the lesion area in the non-treated plant | Lesion Area (%) |
| --- | --- | --- |
| Cc1cc(OCC2CC2)c(C)cc1/N=C/N(C)C [1-17, N′-(4-cyclopropylmethoxy-2,5-dimethylphenyl)-N,N-dimethylformamidine] | ≤ 10% | 1-10% |
| Cc1cc(OCC2CCCCC2)c(C)cc1N=CN(C)C [Compound 267, N′-(4-cyclohexylmethoxy-2,5-dimethylphenyl)-N,N-dimethylformamidine] | ≤ 50% | 31-50% |
